# Experimental data from PMC3961306, “Comparison of the Cancer Gene Targeting and Biochemical Selectivities of All Targeted Kinase Inhibitors Approved for Clinical Use” (PLoS ONE, 2014).
# Tests used:
# Experiment in all cases: Kinase profiling in a biochemical assay panel (mobility shift assays and ELISA), %-inhibition at 1 μM; selectivity entropy
# [1] = target: panel of more than 300 wild-type and mutant kinases (313 kinase panel) (Homo sapiens, UniProt Q13464); conditions: kinase ROCK1; 1 μM
# [2] = target: T1, panel of more than 300 wild-type and mutant kinases (313 kinase panel) (Homo sapiens, UniProt Q9NRA0); conditions: kinase SPHK2; 1 μM
# T1 sequence (Q9NRA0 1-654): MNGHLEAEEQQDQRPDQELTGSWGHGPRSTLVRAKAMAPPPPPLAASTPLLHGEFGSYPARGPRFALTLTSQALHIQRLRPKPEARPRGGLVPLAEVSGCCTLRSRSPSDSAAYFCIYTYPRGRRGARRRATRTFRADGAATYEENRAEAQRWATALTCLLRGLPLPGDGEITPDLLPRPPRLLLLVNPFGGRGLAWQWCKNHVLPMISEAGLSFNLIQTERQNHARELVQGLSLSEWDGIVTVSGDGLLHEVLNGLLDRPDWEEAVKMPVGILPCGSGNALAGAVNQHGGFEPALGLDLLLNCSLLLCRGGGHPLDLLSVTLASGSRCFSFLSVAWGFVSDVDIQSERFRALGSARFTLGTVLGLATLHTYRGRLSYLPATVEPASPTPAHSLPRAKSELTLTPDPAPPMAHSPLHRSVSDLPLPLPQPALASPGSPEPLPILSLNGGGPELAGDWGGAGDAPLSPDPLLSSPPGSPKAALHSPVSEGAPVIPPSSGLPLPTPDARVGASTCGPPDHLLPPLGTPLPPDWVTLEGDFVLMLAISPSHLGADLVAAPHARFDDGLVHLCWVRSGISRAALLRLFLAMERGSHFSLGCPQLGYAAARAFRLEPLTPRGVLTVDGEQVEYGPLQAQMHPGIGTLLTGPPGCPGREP
# [3] = target: T2, panel of more than 300 wild-type and mutant kinases (313 kinase panel) (Homo sapiens, UniProt P45985); conditions: kinase MAP2K4; compound at 1 μM
# T2 sequence (P45985 1-399): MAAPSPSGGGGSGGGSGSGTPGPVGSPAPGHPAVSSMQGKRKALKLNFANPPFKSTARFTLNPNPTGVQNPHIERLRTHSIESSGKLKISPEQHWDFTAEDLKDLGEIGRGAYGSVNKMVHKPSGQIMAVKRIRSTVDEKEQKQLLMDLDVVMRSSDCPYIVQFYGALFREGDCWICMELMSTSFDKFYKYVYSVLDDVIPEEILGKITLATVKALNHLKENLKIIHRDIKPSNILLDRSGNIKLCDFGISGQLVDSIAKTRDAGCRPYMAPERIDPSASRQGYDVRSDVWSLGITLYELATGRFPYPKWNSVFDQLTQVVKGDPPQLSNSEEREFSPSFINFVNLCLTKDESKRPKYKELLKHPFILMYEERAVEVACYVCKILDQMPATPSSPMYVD
# [4] = target: panel of more than 300 wild-type and mutant kinases (313 kinase panel) (Homo sapiens, UniProt P53350); conditions: kinase PLK1; 1 μM
# [5] = target: T3, panel of more than 300 wild-type and mutant kinases (313 kinase panel) (Homo sapiens, UniProt Q9NRM7); conditions: kinase LATS2; compound at 1 μM
# T3 sequence (Q9NRM7 1-1088): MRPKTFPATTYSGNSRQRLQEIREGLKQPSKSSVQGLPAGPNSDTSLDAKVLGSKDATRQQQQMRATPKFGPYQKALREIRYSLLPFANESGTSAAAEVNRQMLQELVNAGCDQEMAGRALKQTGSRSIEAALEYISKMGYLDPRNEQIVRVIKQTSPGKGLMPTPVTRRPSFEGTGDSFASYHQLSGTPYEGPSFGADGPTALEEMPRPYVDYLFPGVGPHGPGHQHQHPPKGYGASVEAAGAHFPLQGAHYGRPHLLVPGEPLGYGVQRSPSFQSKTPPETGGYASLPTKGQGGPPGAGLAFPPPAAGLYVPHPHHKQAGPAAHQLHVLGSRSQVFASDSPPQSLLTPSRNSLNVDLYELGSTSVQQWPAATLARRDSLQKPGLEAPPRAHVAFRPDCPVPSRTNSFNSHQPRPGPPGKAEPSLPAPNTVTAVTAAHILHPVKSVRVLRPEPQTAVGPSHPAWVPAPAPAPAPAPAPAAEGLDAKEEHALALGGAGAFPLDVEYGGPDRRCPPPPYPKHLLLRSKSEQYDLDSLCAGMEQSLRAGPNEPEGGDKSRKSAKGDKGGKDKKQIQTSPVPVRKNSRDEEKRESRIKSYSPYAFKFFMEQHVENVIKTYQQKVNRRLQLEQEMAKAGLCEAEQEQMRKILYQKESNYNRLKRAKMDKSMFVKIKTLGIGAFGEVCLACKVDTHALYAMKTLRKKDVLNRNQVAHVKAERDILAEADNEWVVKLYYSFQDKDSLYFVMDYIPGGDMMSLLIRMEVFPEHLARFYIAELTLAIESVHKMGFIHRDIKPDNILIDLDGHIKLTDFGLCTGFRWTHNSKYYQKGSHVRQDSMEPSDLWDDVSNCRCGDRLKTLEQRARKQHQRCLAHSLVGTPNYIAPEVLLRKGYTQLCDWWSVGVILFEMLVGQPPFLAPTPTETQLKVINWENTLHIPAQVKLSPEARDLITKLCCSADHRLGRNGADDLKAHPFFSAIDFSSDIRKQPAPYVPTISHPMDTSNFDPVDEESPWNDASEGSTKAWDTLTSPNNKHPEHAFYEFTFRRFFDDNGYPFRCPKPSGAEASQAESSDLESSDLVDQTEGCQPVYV
SMILES,%-inhibition of ROCK1 [1],%-inhibition of SPHK2 [2],%-inhibition of MAP2K4 [3],%-inhibition of PLK1 [4],%-inhibition of LATS2 [5]
CC(=O)Nc1cccc(-n2c(=O)n(C3CC3)c(=O)c3c(Nc4ccc(I)cc4F)n(C)c(=O)c(C)c32)c1 [trametinib],3.21%,-14%,2.18%,-9%,1.87%
COc1cc2c(Nc3ccc(Br)cc3F)ncnc2cc1OCC1CCN(C)CC1 [vandetanib],-0.226%,5.7%,-2.77%,-3.6%,-8%
